PubChem BioAssay AID248 (DTP/NCI, 2004)
Inconclusive results and toxic doses are left out. Cut-off read from the data, not from the text of the source: active = T/C of 150% or more; inactive = T/C below 125%.

System: L1210 leukemia ip in BDF1 mice, survival T/C
Experiment: NCI In Vivo Anticancer Drug Screen. Data for tumor model L1210 Leukemia (intraperitoneal) in B6D2F1 (BDF1) mice
Details: endpoint: mean survival time, vehicle: olive oil, sesame oil, peanut oil, higher = longer survival
Outline: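 Value reflects the ratio of survival in compound-treated mice to survival in vehicle-treated controls, with both groups carrying the same transplanted tumor.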

Measured: T/C

O=C(OC(=O)c1ccc([N+](=O)[O-])cc1)c1ccc([N+](=O)[O-])cc1
inactive: dose: 100.0 mg/kg/injection, schedule: Q01DX009 (sc) 104 % of control | dose: 100.0 mg/kg/injection, schedule: Q04DX003 (sc) 98 % of control | dose: 200.0 mg/kg/injection, schedule: Q01DX009 (sc) 106 % of control | dose: 200.0 mg/kg/injection, schedule: Q04DX003 (sc) 98 % of control | dose: 400.0 mg/kg/injection, schedule: Q01DX009 (sc) 118 % of control | dose: 400.0 mg/kg/injection, schedule: Q04DX003 (sc) 101 % of control
